Source: EP1401829B1, “NOVEL HETEROCYCLIC ANTIBACTERIAL COMPOUNDS” (Microbiotix, Inc., priority 2001, dated 2002)
Marks after values point to notes of the source that are not given here.

How the values were obtained:
[1] = Overt toxicity observed in mouse infection models; format: in vivo; details: mice; at therapeutic doses (doses providing survival above no treatment control)
Procedure: (§1) Using the same basic procedure as described above, the in vivo efficacy of Compound 70 was also evaluated at various doses in mice infected with S. aureaus (Smith), MRSA 1094, Enterococcus faecalis, or vancomycin-resistant Enterococcus faecalis strain VRE 700802. […] Negative controls were mice infected that received no treatment. Mucin was employed as an adjuvant to facilitate bacterial infection in mice, where indicated.

[2] = system: MRSA 1094; assay: In vivo efficacy of Compound 70 in mouse models; design: species or system Staphylococcus aureus; details: mice, 10^7 CFU/mouse + 5% Mucin, regimen 2 (t=0,2)
Procedure: (§2) Swiss Webster mice, ca. 20 g each, were infected with Staphylococcus aureus (Smith strain) by the intraperitoneal route. Test compounds (2, 4, 5, 6, 7, 8, 10, 12) were dissolved in 10% dimethylsulfoxide in peanut oil to a concentration of 2 mg/ml. Vancomycin was used as positive control drug (i.e., protection from lethal infection). Fifteen minutes after infection, test compounds, vancomycin, or vehicle alone were given intraperitoneally to groups of five mice each. Animals were monitored for three days, and the number of mice surviving was tabulated for each treatment.
as §1

[3] = system: VRE 700802; assay: In vivo efficacy of Compound 70 in mouse models; design: species or system Enterococcus faecalis; details: mice, 3x10^8 CFU/mouse + 5% Mucin
Procedure: as §2, §1

[4] = dose 50 mg/kg, regimen 2 (t=0,2)
[5] = dose 50 mg/kg, regimen 2 (t=0,3)
[6] = dose 75 mg/kg, regimen 2 (t=0,2-)
[7] = dose 75 mg/kg, regimen 2 (t=0,3)
[8] = dose 100 mg/kg, regimen 1 (t=0)

## CCc1cc(Nc2cc(=O)n(CCCCN3CCN(c4c(F)cc5c(=O)c(C(=O)O)cn(C6CC6)c5c4F)CC3C)c(=O)[nH]2)ccc1C (centres unmarked) [Compound 70, 3-{4-[1-(1-cyclopropyl-3-carboxy-4-oxo-6,8-difluoro-7-quinolyl)-3-methyl-4-piperazinyl]butyl}-6-(3-ethyl-4-methylanilino)uracil]
[1]
  overt toxicity: no overt toxicity
[2]; dose 25 mg/kg
  % Survival at 72 hours: 0% (0/5)
[2]; dose 50 mg/kg
  % Survival at 72 hours: 55% (11/20)*
[2]; dose 75 mg/kg
  % Survival at 72 hours: 80% (4/5)
[3]; [4]
  % Survival at 72 hours: 10% (1/10)
  Mean Survival Time: 45 h
[3]; [5]
  % Survival at 72 hours: 0% (0/5)
  Mean Survival Time: 35 h
[3]; [6]
  % Survival at 72 hours: 0% (0/5)
  Mean Survival Time: 50 h
[3]; [7]
  % Survival at 72 hours: 40% (2/5)
  Mean Survival Time: 50 h
[3]; [8]
  % Survival at 72 hours: 0% (0/5)
  Mean Survival Time: 34 h
